The source of these data is patent US10183944B2 (Asana Biosciences, LLC, priority 2011, dated 2019).

The target of this test is Syk (356-635 amino acids) catalytic domain (Homo sapiens (Human), UniProt P43405). Briefly: Inhibition of enzymatic Syk kinase activity (radiometric). The class given is biochemical. To be noted: read-out: IC50 Syk. The text has this:
The objective of this assay was to examine by radiometric method the ability of compounds to inhibit Syk kinase enzyme. Syk is capable of phosphorylating substrates such as VAV, LAT, SLP-76, which in turn activate MAPK, PLCγ signaling pathways. […] This in vitro assay tests the ability of syk to phosphorylate a substrate peptide in the presence of ATP. By using a radio-labeled form of ATP, it is possible to measure the amount of phosphorylation of the substrate. The enzyme transfers a radio-labeled phosphate group from γ32 P labeled ATP to pG4T. Briefly the enzyme was incubated with substrate, radio-labeled & cold ATP and substrate in buffer with or without compounds. At the end of the reaction, the reaction mixture was transferred on to a Multiscreen filter plate and unreacted γ^32P ATP was washed off. The filter plate was dried and the radioactivity was measured on a scintillation counter to estimate the incorporated radioactivity on the substrate. The percent inhibition of activity of the enzyme was calculated by comparing counts in the presence and absence of compounds. […] 2.5 μL of 10% DMSO or compound in 10% DMSO was added to the wells in a 96 well V-bottom plate. Optimized concentration of in-house Syk enzyme (different batches of Syk (356-635) kinase domain) were used at optimized concentrations) ranging from 0.035 ng to 7.5 ng/reaction diluted in assay buffer was added to a total volume of 12.5 μL). Compound and protein were incubated for 30 minutes at room temperature on a plate shaker. Ten μL of a substrate mix containing 100 μM ATP (0.25 μL), γ-P^32-ATP (0.1 μL; 10 μCi/μL), pG4T (0.25 μL; 10 mg/mL) and 1× assay buffer (9.4 μL) was added to all the wells. Samples were incubated at 30° C. for 10 minutes after mixing. The reaction was stopped by the addition of 8N HCl (13 μL) containing 100 mM ATP. Thirty μL of sample was transferred to the center of a 2×2 cm^2 Whatman® P81 chromatography paper. After allowing the sample to dry for one minute, the assay squares were washed 3 times for 5 minutes each in ortho-phosphoric acid (0.5%) and once in acetone. Assay squares were dried for 15 minutes in a 30° C. oven and transferred to 96 well optiplate. Microscint-O® reagent (100 μL, Perkin Elmer) was added to each well, the plate was sealed with Topseal®-A microplates and incubated for 10 minutes at room temperature at very low speed on rocker and the plate was read in the Topcount® NXL instrument. The following calculations were made: Fold induction=radioactivity counts (uncorrected values) in positive control/substrate control.

`N#CCC1CCN(c2nc(Nc3ccc(N4CCC(O)CC4)cc3)c3c(=O)n(COP(=O)(O)O)ncc3n2)CC1` [Example 330, sodium (2-(4-(cyanomethyl)piperidin-1-yl)-4-((4-(4-hydroxypiperidin-1-yl)phenyl)amino)-5-oxopyrimido[4,5-d]pyridazin-6(5H)-yl)methyl phosphate]: the IC50 is over 100 nM.

On to `O=c1[nH]ncc2nc(N3CCCCCC3)nc(Nc3ccc(OC(F)(F)F)cc3)c12` [Example 303, 2-(azepan-1-yl)-4-((4-(trifluoromethoxy)phenyl)amino)pyrimido[4,5-d]pyridazin-5(6H)-one], for which the IC50 was over 100 nM.

With `O=c1[nH]ncc2nc(-c3ccccc3)nc(Nc3cnn(CCN4CCOCC4)c3)c12` [Example 58, 4-((1-(2-morpholinoethyl)-1H-pyrazol-4-yl)amino)-2-phenylpyrimido[4,5-d]pyridazin-5(6H)-one], the IC50 is over 100 nM.

As for `CCn1nnc(-c2ccc(Nc3nc(N4CCC(CC#N)CC4)nc4cn[nH]c(=O)c34)cc2)n1` [Example 226, 2-(1-(4-((4-(2-ethyl-2H-tetrazol-5-yl)phenyl)amino)-5-oxo-5,6-dihydropyrimido[4,5-d]pyridazin-2-yl)piperidin-4-yl)acetonitrile], the IC50 was over 100 nM.

`COc1cc(Nc2nc(N3CCC(CC#N)CC3)nc3cn[nH]c(=O)c23)cc(OC)c1` [Example 300, 2-(1-(4-((3,5-dimethoxyphenyl)amino)-5-oxo-5,6-dihydropyrimido[4,5-d]pyridazin-2-yl)piperidin-4-yl)acetonitrile]: the IC50 was over 100 nM.

`O=c1[nH]ncc2nc(-c3ccccc3)nc(Nc3ccc(OC[C@@H]4CO[C@@H](CO)CO4)cc3)c12` [Example 122, 4-((4-(((2S,5S)-5-(hydroxymethyl)-1,4-dioxan-2-yl)methoxy)phenyl)amino)-2-phenylpyrimido[4,5-d]pyridazin-5(6H)-one]: the IC50 is over 100 nM.

With `N#CCC1CCN(c2nc(Nc3ccc4c(c3)OCO4)c3c(=O)[nH]ncc3n2)CC1` [Example 328, 2-(1-(4-(benzo[d][1,3]dioxol-5-ylamino)-5-oxo-5,6-dihydropyrimido[4,5-d]pyridazin-2-yl)piperidin-4-yl) acetonitrile], the IC50 is over 100 nM.

Consider `CCn1nnc(-c2ccc(Nc3nc(N4CCCCCC4)nc4cn[nH]c(=O)c34)cc2)n1` [Example 225, 2-(azepan-1-yl)-4-((4-(2-ethyl-2H-tetrazol-5-yl)phenyl)amino)pyrimido[4,5-d]pyridazin-5(6H)-one], for which the IC50 is over 100 nM.

Turning to `O=C(c1ccc(Nc2nc(-c3ccccc3)nc3cn[nH]c(=O)c23)cc1)N1CCOCC1` [Example 9, 4-(4-(morpholine-4-carbonyl)phenylamino)-2-phenylpyrimido[4,5-d]pyridazin-5(6H)-one], the IC50 is over 100 nM.

As to `CC(C)(C#N)N1CCN(c2ccc(Nc3nc(N4CCCCCC4)nc4cn[nH]c(=O)c34)cc2)CC1` [Example 111, 2-(4-(4-((2-(azepan-1-yl)-5-oxo-5,6-dihydropyrimido[4,5-d]pyridazin-4-yl)amino)phenyl)piperazin-1-yl)-2-methylpropanenitrile], the IC50 is under 50 nM.

Regarding `O=c1[nH]ncc2nc(N3CCCCCC3)nc(Nc3ccc4c(c3)OCO4)c12` [Example 327, 2-(azepan-1-yl)-4-(benzo[d][1,3]dioxol-5-ylamino)pyrimido[4,5-d]pyridazin-5(6H)-one], the IC50 was over 100 nM.
